From paper PMC12136037, “Type II kinase inhibitors that target Parkinson’s disease–associated LRRK2” (Science Advances, 2025)
“And” between values parts separate entries of the source, which are not always exact repeats. Identical values can stand only once. Each block holds one compound with its values, some of them ahead of it.

Columns and labels:
[1] = biological target: T1, ~100 representative kinases (Homo sapiens, UniProt Q9UK32); assay: DSF 100 kinase selectivity screen; type: binding; conditions: Protein RPS6KA6; DSF; average of three replicates;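 also: compound tested at 20 µM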
T1 construct: Recombinant protein kinase domains with a concentration of 2 μM
How it was run: (§1)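 Each kinase domain, at 2 μM, is mixed with 20 μM test compound and SYPRO Orange in Hepes (20 mM, pH 7.5) with 500 mM NaCl. Temperature is then raised at 3°C/min and fluorescence-monitored unfolding yields the melting temperature change, ΔTm in degrees Celsius.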

[2] = biological target: T2, ~100 representative kinases (Homo sapiens, UniProt Q9BVS4); assay: DSF 100 kinase selectivity screen; type: binding; conditions: Protein RIOK2; DSF; average of three replicates;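 also: compound tested at 20 µM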
T2 construct: Recombinant protein kinase domains with a concentration of 2 μM
How it was run: as §1

LRRK2^RCKW = biological target: T3, LRRK2^RCKW (Homo sapiens, UniProt Q5S007); assay: MS-based activity assay, Rab8a phosphorylation (pT72); type: biochemical; conditions: for % phosphorylation: Rab8a; for % phosphorylation / Normalized: single runs; for LRRK2RCKW activity (% control): mean of n=3; for IC50: mass spectrometry, 1 mM ATP, 4 h, read-out: IC50, LRRK2^RCKW-mediated phosphorylation of Rab8a; for Normalized: normalized % phosphorylation of Rab8a
T3 construct: LRRK2 R1327 to E2527; His6-Z-tag (TEV cleavable) (N, cleaved yes); host or cells: Sf9 insect cells (baculovirus)
T3 sequence (Q5S007 1327-2527): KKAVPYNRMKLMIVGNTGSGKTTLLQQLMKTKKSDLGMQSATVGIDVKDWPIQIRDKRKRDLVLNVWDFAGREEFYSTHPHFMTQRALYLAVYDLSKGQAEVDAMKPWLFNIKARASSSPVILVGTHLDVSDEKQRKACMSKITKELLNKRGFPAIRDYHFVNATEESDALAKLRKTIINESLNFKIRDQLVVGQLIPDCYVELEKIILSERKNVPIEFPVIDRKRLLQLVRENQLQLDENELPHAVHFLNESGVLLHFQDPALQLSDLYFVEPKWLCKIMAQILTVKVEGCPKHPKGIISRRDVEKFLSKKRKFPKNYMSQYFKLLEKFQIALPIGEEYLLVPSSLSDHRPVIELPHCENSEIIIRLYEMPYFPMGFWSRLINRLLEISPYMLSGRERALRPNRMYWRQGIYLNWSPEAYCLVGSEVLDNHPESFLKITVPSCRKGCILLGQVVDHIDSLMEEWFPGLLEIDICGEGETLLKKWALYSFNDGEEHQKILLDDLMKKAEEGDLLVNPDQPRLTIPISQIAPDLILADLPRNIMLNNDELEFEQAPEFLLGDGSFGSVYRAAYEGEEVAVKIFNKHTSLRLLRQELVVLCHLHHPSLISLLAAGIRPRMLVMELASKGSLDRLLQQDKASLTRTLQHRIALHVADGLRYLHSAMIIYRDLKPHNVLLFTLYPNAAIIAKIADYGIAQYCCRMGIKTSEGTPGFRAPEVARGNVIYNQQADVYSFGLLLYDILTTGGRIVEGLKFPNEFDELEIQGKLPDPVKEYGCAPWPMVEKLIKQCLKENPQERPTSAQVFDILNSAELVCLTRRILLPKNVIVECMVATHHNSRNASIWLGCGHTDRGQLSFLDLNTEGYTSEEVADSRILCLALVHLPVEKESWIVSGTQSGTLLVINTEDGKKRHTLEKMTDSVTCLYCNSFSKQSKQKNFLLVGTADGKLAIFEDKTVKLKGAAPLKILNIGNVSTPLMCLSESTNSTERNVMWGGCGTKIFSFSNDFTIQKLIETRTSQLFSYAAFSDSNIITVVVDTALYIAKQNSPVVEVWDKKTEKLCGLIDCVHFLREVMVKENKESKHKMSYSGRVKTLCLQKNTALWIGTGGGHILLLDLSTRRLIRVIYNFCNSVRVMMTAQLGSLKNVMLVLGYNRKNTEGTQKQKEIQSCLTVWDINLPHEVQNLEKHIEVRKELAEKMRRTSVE
Method: To determine IC50 values for selected inhibitors, activity assay was performed using LRRK2^RCKW and Rab8A substrate (table S4). LRRK2^RCKW (20 nM) was incubated with 5 μM substrate and a concentration series of the respective inhibitor in 20 mM Hepes (pH 7.4), 100 mM NaCl, 0.5 mM TCEP, 0.5% glycerol, 20 μM GDP, and 2.5 mM MgCl2. The reaction was started by adding 1 mM ATP and incubated at room temperature for 4 hours. The phosphorylation reaction was stopped by addition of MS buffer (0.1% formic acid in water). Reaction mix (5 μl) was injected into an Agilent 6230 electrospray ionization time-of-flight mass spectrometer coupled to a 1260 Infinity liquid chromatography unit (flow rate at 0.4 ml/min using a solvent gradient of water to acetonitrile with 0.1% formic acid). Data were acquired using the MassHunter LC/MS Data Acquisition software and analyzed using the BioConfirm vB.08.00 tool (both Agilent Technology, www.agilent.com/en/product/software-informatics/mass-spectrometry-software, RRID: SCR_016657).
Peak intensities of unphosphorylated and phosphorylated Rab8A were quantified, and the relative kinase activity was calculated as a ratio. To determine the IC50, a nonlinear regression with variable slope was fitted to the datapoints with GraphPad Prism (www.graphpad.com/, RRID:SCR_002798). (For step-by-step protocol, see dx.doi.org/10.17504/protocols.io.6qpvr385ovmk/v2.)

350 wild-type kinases = biological target: T4, 350 wild-type kinases (Homo sapiens, UniProt O14757); assay: 33PanQinase kinome-wide selectivity profile (Reaction Biology); type: biochemical; conditions: kinase CHK1, ATP 1 µM, singlicate
T4 construct: purchased Reaction Biology (assay service)
Method: Compound RN341 was tested at two concentrations of 1 and 10 μM against a panel of 350 wild-type kinases in the ^33PanQinase assay. The assay was performed by Reaction Biology (www.reactionbiology.com/services/kinase-assays/kinase-panel-screening/).

[3] = inhibitor 0.21 (0.212), listed as RN277
[4] = inhibitor 0.64 (0.635), listed as RN277
[5] = inhibitor 1.91 (2), listed as RN277
[6] = inhibitor 5.72 (6), listed as RN277
[7] = inhibitor 17.15 (17), listed as RN277
[8] = inhibitor 51.44 (51), listed as RN277
[9] = inhibitor 154.32 (154), listed as RN277
[10] = inhibitor 462.96 (463), listed as RN277
[11] = inhibitor 1388.89 (1389), listed as RN277
[12] = inhibitor 4166.67 (4167), listed as RN277
[13] = inhibitor 12500, listed as RN277
[14] = inhibitor 0.21 (0.212), listed as RN341
[15] = inhibitor 0.64 (0.635), listed as RN341
[16] = inhibitor 1.91 (2), listed as RN341
[17] = inhibitor 5.72 (6), listed as RN341
[18] = inhibitor 17.15 (17), listed as RN341
[19] = inhibitor 51.44 (51), listed as RN341
[20] = inhibitor 154.32 (154), listed as RN341
[21] = inhibitor 462.96 (463), listed as RN341
[22] = inhibitor 1388.89 (1389), listed as RN341
[23] = inhibitor 4166.67 (4167), listed as RN341
[24] = inhibitor 12500, listed as RN341

T4 sequence (O14757 whole entry): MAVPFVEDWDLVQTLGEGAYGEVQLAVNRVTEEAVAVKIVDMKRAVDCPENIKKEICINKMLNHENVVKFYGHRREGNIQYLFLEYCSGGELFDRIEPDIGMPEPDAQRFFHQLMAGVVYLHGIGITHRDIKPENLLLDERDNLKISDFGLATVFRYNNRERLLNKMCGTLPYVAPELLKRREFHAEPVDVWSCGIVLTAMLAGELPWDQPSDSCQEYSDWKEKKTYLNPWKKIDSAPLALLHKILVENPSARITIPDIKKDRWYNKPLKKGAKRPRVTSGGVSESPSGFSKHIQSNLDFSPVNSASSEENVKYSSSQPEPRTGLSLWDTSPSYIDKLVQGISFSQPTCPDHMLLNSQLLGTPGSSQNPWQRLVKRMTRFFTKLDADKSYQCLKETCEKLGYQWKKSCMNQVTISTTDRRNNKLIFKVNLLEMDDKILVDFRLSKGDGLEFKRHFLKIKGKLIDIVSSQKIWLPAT
T2 sequence (Q9BVS4 whole entry, the tested form may be a part): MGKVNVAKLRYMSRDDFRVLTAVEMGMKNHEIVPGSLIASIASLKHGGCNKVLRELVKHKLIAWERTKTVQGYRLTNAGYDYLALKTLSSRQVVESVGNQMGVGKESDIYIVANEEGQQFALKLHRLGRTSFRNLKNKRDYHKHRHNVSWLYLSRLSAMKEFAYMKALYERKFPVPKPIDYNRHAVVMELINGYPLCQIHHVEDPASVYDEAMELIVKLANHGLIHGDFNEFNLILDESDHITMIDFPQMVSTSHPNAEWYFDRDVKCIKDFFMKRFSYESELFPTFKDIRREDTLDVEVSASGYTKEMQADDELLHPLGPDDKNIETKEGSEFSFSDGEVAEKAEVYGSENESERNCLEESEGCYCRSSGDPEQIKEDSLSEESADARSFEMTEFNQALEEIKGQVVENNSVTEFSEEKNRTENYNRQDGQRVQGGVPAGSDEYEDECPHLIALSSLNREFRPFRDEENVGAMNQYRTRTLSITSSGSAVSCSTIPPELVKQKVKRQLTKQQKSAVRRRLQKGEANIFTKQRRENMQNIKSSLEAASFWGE
T1 sequence (Q9UK32 whole entry, the tested form may be a part): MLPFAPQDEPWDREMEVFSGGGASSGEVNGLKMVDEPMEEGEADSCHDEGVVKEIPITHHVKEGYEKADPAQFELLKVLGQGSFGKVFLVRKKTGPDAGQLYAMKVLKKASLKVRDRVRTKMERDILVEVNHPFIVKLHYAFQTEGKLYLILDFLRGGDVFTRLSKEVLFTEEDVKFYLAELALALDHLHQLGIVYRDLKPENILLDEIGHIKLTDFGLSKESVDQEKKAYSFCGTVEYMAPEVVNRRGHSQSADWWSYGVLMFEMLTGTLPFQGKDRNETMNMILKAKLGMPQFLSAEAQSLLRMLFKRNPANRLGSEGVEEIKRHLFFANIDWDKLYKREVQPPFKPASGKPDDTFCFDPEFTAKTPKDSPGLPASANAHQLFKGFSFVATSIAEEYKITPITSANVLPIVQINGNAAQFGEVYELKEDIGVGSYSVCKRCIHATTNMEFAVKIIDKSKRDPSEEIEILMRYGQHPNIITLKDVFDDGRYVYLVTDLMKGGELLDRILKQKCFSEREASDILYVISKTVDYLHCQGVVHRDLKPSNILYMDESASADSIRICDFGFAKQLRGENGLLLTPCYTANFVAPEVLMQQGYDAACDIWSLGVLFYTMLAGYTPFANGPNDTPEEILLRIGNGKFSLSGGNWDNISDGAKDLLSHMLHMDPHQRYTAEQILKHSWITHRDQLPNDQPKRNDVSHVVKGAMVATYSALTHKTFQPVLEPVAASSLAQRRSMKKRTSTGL

dTm [1]: -0.02 K | dTm [2]: 1.81 K
SMILES: Cc1ccc(C(=O)Nc2ccc(CN3CCN(C)CC3)c(C(F)(F)F)c2)cc1C#Cc1c[nH]c2ncnc(N3CCOCC3)c12 [Compound 1]

% phosphorylation (LRRK2^RCKW; [3]): 60.4% and 59.2% and 60.0% | % phosphorylation (LRRK2^RCKW; [4]): 61.6% and 60.3% and 62.2% | % phosphorylation (LRRK2^RCKW; [5]): 60.4% and 59.2% | % phosphorylation (LRRK2^RCKW; [6]): 61.0% and 59.5% and 59.1% | % phosphorylation (LRRK2^RCKW; [7]): 52.8% and 50.7% and 48.4% | % phosphorylation (LRRK2^RCKW; [8]): 34.0% and 33.1% and 33.2% | % phosphorylation (LRRK2^RCKW; [9]): 18.1% and 19.7% and 20.2% | % phosphorylation (LRRK2^RCKW; [10]): 8.2% and 8.7% and 10.4% | % phosphorylation (LRRK2^RCKW; [11]): 5.3% and 5.2% and 5.4% | % phosphorylation (LRRK2^RCKW; [12]): 4.0% and 5.6% | % phosphorylation (LRRK2^RCKW; [13]): 4.6% and 3.7% and 4.4% | LRRK2RCKW activity (% control) (LRRK2^RCKW; inhibitor 0.64 nM): 102.03 % control | LRRK2RCKW activity (% control) (LRRK2^RCKW; inhibitor 5.72 nM): 99.57 % control | LRRK2RCKW activity (% control) (LRRK2^RCKW; inhibitor 17.15 nM): 84.23 % control | LRRK2RCKW activity (% control) (LRRK2^RCKW; inhibitor 51.44 nM): 55.63 % control | LRRK2RCKW activity (% control) (LRRK2^RCKW; inhibitor 154.32 nM): 32.20 % control | LRRK2RCKW activity (% control) (LRRK2^RCKW; inhibitor 462.96 nM): 15.20 % control | LRRK2RCKW activity (% control) (LRRK2^RCKW; inhibitor 1388.89 nM): 8.77 % control | IC50 (LRRK2^RCKW): 70 nM | Normalized (LRRK2^RCKW; [3]): 100.1 and 100.0 and 98.5 | Normalized (LRRK2^RCKW; [4]): 102.0 and 101.9 and 102.2 | Normalized (LRRK2^RCKW; [5]): 99.9 and 100.1 and 99.3 | Normalized (LRRK2^RCKW; [6]): 100.9 and 100.6 and 97.0 | Normalized (LRRK2^RCKW; [7]): 87.4 and 85.7 and 79.5 | Normalized (LRRK2^RCKW; [8]): 56.4 and 55.8 and 54.6 | Normalized (LRRK2^RCKW; [9]): 29.8 and 32.7 and 34.1 | Normalized (LRRK2^RCKW; [10]): 13.5 and 14.4 and 17.6 | Normalized (LRRK2^RCKW; [11]): 8.6 and 9.0 | Normalized (LRRK2^RCKW; [12]): 6.6 and 9.5 | Normalized (LRRK2^RCKW; [13]): 7.5 and 6.1
SMILES: Cc1ccc(-n2nc(C(C)(C)C)cc2NC(=O)Nc2cccc(-c3c[nH]c4nc(Cl)nc(N5CCOCC5)c34)c2)cc1 [Compound 30]

SMILES: CCSc1nc(NC)c2c(-c3cccc(NC(=O)Nc4cc(C(C)(C)C)nn4-c4ccc(C)cc4)c3)c[nH]c2n1 [Compound 32]
Residual activity (% of control), CHK1 (350 wild-type kinases; Assay Conc. 1.0E-05 M): 72 % of control | Residual activity (% of control), CHK1 (350 wild-type kinases; Assay Conc. 1.0E-06 M): 110 % of control | % phosphorylation (LRRK2^RCKW; [14]): 66.5% and 61.3% and 65.1% | % phosphorylation (LRRK2^RCKW; [15]): 67.4% and 62.2% and 63.1% | % phosphorylation (LRRK2^RCKW; [16]): 64.1% and 60.1% and 61.1% | % phosphorylation (LRRK2^RCKW; [17]): 63.8% and 59.4% and 61.3% | % phosphorylation (LRRK2^RCKW; [18]): 55.5% and 52.5% and 53.7% | % phosphorylation (LRRK2^RCKW; [19]): 47.7% and 41.6% and 46.5% | % phosphorylation (LRRK2^RCKW; [20]): 25.7% and 23.0% and 24.6% | % phosphorylation (LRRK2^RCKW; [21]): 11.0% and 11.8% and 10.3% | % phosphorylation (LRRK2^RCKW; [22]): 8.0% and 8.8% and 7.9% | % phosphorylation (LRRK2^RCKW; [23]): 5.7% and 6.7% and 6.1% | % phosphorylation (LRRK2^RCKW; [24]): 5.9% and 7.2% and 6.3% | LRRK2RCKW activity (% control) (LRRK2^RCKW; inhibitor 0.64 nM): 100.63 % control | LRRK2RCKW activity (% control) (LRRK2^RCKW; inhibitor 5.72 nM): 96.37 % control | LRRK2RCKW activity (% control) (LRRK2^RCKW; inhibitor 17.15 nM): 84.53 % control | LRRK2RCKW activity (% control) (LRRK2^RCKW; inhibitor 51.44 nM): 70.93 % control | LRRK2RCKW activity (% control) (LRRK2^RCKW; inhibitor 154.32 nM): 38.27 % control | LRRK2RCKW activity (% control) (LRRK2^RCKW; inhibitor 462.96 nM): 17.40 % control | LRRK2RCKW activity (% control) (LRRK2^RCKW; inhibitor 1388.89 nM): 12.93 % control | IC50 (LRRK2^RCKW): 110 nM | Normalized (LRRK2^RCKW; [14]): 99.7 and 99.1 and 103.7 | Normalized (LRRK2^RCKW; [15]): 101.0 and 100.4 and 100.5 | Normalized (LRRK2^RCKW; [16]): 96.1 and 97.0 and 97.3 | Normalized (LRRK2^RCKW; [17]): 95.6 and 96.0 and 97.5 | Normalized (LRRK2^RCKW; [18]): 83.2 and 84.9 and 85.6 | Normalized (LRRK2^RCKW; [19]): 71.6 and 67.2 and 74.0 | Normalized (LRRK2^RCKW; [20]): 38.5 and 37.1 and 39.2 | Normalized (LRRK2^RCKW; [21]): 16.6 and 19.1 and 16.5 | Normalized (LRRK2^RCKW; [22]): 12.0 and 14.2 and 12.6 | Normalized (LRRK2^RCKW; [23]): 8.5 and 10.8 and 9.6 | Normalized (LRRK2^RCKW; [24]): 8.9 and 11.6 and 10.1
